Here are results for 13 substances from patent US20040171566A1, “Antisense modulation of p38 mitogen activated protein kinase expression” (priority 1999, published 2004).

One data set concerns mouse p38α mRNA. The data set is described as follows: Mouse p38α mRNA levels in bEND.3 cells, quantitative real-time PCR. The conditions noted are these: bEND.3 cells, mRNA by quantitative real-time PCR, average of two experiments. Format: cell-based. Details: % Inhib. mouse p38α: concentration or dose not given beside the values. An excerpt: (§1) Quantitation of p38α mRNA levels was accomplished by real-time quantitative PCR using the ABI PRISM™ 7600, 7700, or 7900 Sequence Detection System (PE-Applied Biosystems, Foster City, Calif.) according to manufacturer's instructions. This is a closed-tube, non-gel-based, fluorescence detection system which allows high-throughput quantitation of polymerase chain reaction (PCR) products in real-time. As opposed to standard PCR in which amplification products are quantitated after the PCR is completed, products in real-time quantitative PCR are quantitated as they accumulate. This is accomplished by including in the PCR reaction an oligonucleotide probe that anneals specifically between the forward and reverse PCR primers, and contains two fluorescent dyes. A reporter dye (e.g., FAM or JOE, obtained from either PE-Applied Biosystems, Foster City, Calif., Operon Technologies Inc., Alameda, Calif. or Integrated DNA Technologies Inc., Coralville, Iowa) is attached to the 5′ end of the probe and a quencher dye (e.g., TAMRA, obtained from either PE-Applied Biosystems, Foster City, Calif., Operon Technologies Inc., Alameda, Calif. or Integrated DNA Technologies Inc., Coralville, Iowa) is attached to the 3′ end of the probe. When the probe and dyes are intact, reporter dye emission is quenched by the proximity of the 3′ quencher dye. During amplification, annealing of the probe to the target sequence creates a substrate that can be cleaved by the 5′-exonuclease activity of Taq polymerase. […] With each cycle, additional reporter dye molecules are cleaved from their respective probes, and the fluorescence intensity is monitored at regular intervals by laser optics built into the ABI PRISM™ Sequence Detection System. In each assay, a series of parallel reactions containing serial dilutions of mRNA from untreated control samples generates a standard curve that is used to quantitate the percent inhibition after antisense oligonucleotide treatment of test samples.
(§2) Prior to quantitative PCR analysis, primer-probe sets specific to the target gene being measured are evaluated for their ability to be “multiplexed” with a GAPDH amplification reaction. In multiplexing, both the target gene and the internal standard gene GAPDH are amplified concurrently in a single sample. In this analysis, mRNA isolated from untreated cells is serially diluted. Each dilution is amplified in the presence of primer-probe sets specific for GAPDH only, target gene only (“single-plexing”), or both (multiplexing). Following PCR amplification, standard curves of GAPDH and target mRNA signal as a function of dilution are generated from both the single-plexed and multiplexed samples. If both the slope and correlation coefficient of the GAPDH and target signals generated from the multiplexed samples fall within 10% of their corresponding values generated from the single-plexed samples, the primer-probe set specific for that target is deemed multiplexable. Other methods of PCR are also known in the art.
(§3) PCR reagents were obtained from Invitrogen Corporation, (Carlsbad, Calif.). […] The RT reaction was carried out by incubation for 30 minutes at 48° C. Following a 10 minute incubation at 95° C. to activate the PLATINUM® Taq, 40 cycles of a two-step PCR protocol were carried out: 95° C. for 15 seconds (denaturation) followed by 60° C. for 1.5 minutes (annealing/extension).
(§4) Gene target quantities obtained by real time RT-PCR are normalized using either the expression level of GAPDH, a gene whose expression is constant, or by quantifying total RNA using RiboGreen™ (Molecular Probes, Inc. Eugene, Oreg.). GAPDH expression is quantified by real time RT-PCR, by being run simultaneously with the target, multiplexing, or separately. Total RNA is quantified using RiboGreen™ RNA quantification reagent (Molecular Probes, Inc. Eugene, Oreg.). Methods of RNA quantification by RiboGreen™ are taught in Jones, L. J., et al, (Analytical Biochemistry, 1998, 265, 368-374). […]
(In general: In qPCR the cycle at which signal appears reflects the starting amount.)

Another data set deals with rat p38α mRNA. Briefly: Rat p38α mRNA levels in NR-8383 cells, quantitative real-time PCR. Format: cell-based. The following applies: 300 nM oligonucleotide with FuGENE 6, 24 hours, mRNA by quantitative real-time PCR, average of two experiments.
Description: as §1, §2, §3, §4

e = 2'-O-(2-methoxyethyl) (MOE); d = 2'-deoxy (DNA)

Take “320154 (antisense TCATGTTTATAAAGGTGAAA; sugars from the 5' end e5 d10 e5, all phosphorothioate, methylation of C not given here) [compound 320154]”: the “% Inhib. mouse p38α” value in the data set on mouse p38α mRNA is 52%. The “% Inhib. rat p38α” value in the data set on rat p38α mRNA is reported as 50%.

“320139 (antisense GCAGCCTCTCTCTGTCACTG; sugars from the 5' end e5 d10 e5, all phosphorothioate, methylation of C not given here) [compound 320139]”: the “% Inhib. mouse p38α” value in the data set with mouse p38α mRNA is listed as 87%. In addition, the “% Inhib. rat p38α” value in the data set on rat p38α mRNA was determined as 61%.

Consider “320132 (antisense TATTTGGAGAGTTCCCATGA; sugars from the 5' end e5 d10 e5, all phosphorothioate, methylation of C not given here) [compound 320132]”, for which the “% Inhib. mouse p38α” value in the data set on mouse p38α mRNA came out at 85%. Also, the “% Inhib. rat p38α” value in the data set on rat p38α mRNA is listed as 56%.

“320172 (antisense ACTCTCGCGAGAACAGCTCC; sugars from the 5' end e5 d10 e5, all phosphorothioate, methylation of C not given here) [compound 320172]”: in the data set on mouse p38α mRNA, the “% Inhib. mouse p38α” value is recorded as 39%. For the same substance, the “% Inhib. rat p38α” value in the data set on rat p38α mRNA is 0%.

As to “320146 (antisense GGCACTGGAGACCTCTGCAC; sugars from the 5' end e5 d10 e5, all phosphorothioate, methylation of C not given here) [compound 320146]”, the “% Inhib. mouse p38α” value in the data set on mouse p38α mRNA stood at 74%. In addition, in the data set on rat p38α mRNA, the “% Inhib. rat p38α” value was 57%.

As for “101755 (antisense CATCATCAGGGTCGTGGTAC; sugars from the 5' end e5 d10 e5, all phosphorothioate, methylation of C not given here) [compound 101755]”, the “% Inhib. mouse p38α” value in the data set with mouse p38α mRNA was determined as 84%. Also, the “% Inhib. rat p38α” value in the data set with rat p38α mRNA was 74%.

Turning to “320153 (antisense AATATTAAAATAATTTGCCC; sugars from the 5' end e5 d10 e5, all phosphorothioate, methylation of C not given here) [compound 320153]”, the “% Inhib. mouse p38α” value with mouse p38α mRNA is reported as 0%. Also, in the data set on rat p38α mRNA, the “% Inhib. rat p38α” value is reported as 22%.

In the case of “306022 (antisense GGCCAGAGACTGAATGTAGT; sugars from the 5' end e5 d10 e5, all phosphorothioate, methylation of C not given here) [compound 306022]”, the “% Inhib. mouse p38α” value with mouse p38α mRNA amounted to 78%. In addition, the “% Inhib. rat p38α” value in the data set on rat p38α mRNA worked out at 53%.

“320166 (antisense ACTGAATGTAGTTTCTTGCC; sugars from the 5' end e5 d10 e5, all phosphorothioate, methylation of C not given here) [compound 320166]”: the “% Inhib. mouse p38α” value with mouse p38α mRNA turned out to be 53%. Besides, the “% Inhib. rat p38α” value in the data set with rat p38α mRNA was 35%.

As to “320124 (antisense GGATTGGCACCAATAAATAC; sugars from the 5' end e5 d10 e5, all phosphorothioate, methylation of C not given here) [compound 320124]”, in the data set with mouse p38α mRNA, the “% Inhib. mouse p38α” value is given as 29%. The “% Inhib. rat p38α” value with rat p38α mRNA was 31%.

Turning to “320109 (antisense GCCCCCATGAGATGGGTCAC; sugars from the 5' end e5 d10 e5, all phosphorothioate, methylation of C not given here) [compound 320109]”, the “% Inhib. mouse p38α” value with mouse p38α mRNA was determined as 69%. Moreover, the “% Inhib. rat p38α” value with rat p38α mRNA amounted to 34%.

“320174 (antisense CCCGCTTGGGCTCCAGTGGC; sugars from the 5' end e5 d10 e5, all phosphorothioate, methylation of C not given here) [compound 320174]”: the “% Inhib. mouse p38α” value in the data set on mouse p38α mRNA is reported as 62%. Besides, the “% Inhib. rat p38α” value in the data set with rat p38α mRNA worked out at 29%.

As for “320161 (antisense GCTGAAGCTGGTTAATATGG; sugars from the 5' end e5 d10 e5, all phosphorothioate, methylation of C not given here) [compound 320161]”, the “% Inhib. mouse p38α” value in the data set with mouse p38α mRNA was 80%. For the same substance, the “% Inhib. rat p38α” value in the data set on rat p38α mRNA is 66%.
